Measurements taken from patent US20170143748A1, “ANTI-TUMOR PHARMACEUTICAL APPLICATION OF PENTACYCLIC TRITERPENE SAPONIN COMPOUNDS OF SZECHUAN MELANDIUM ROOT” (priority 2014, published 2017).
Read-outs that look alike come from different tables or passages of the source.

Columns and labels:
HT29 human colon cancer = test: Anti-HT29 human colon cancer in BALB/c (nu/nu) nude mice; format: in vivo; details: for body weight of HT29-bearing nude mice / tumor volume of HT29-bearing nude mice: mg/kg BW: total saponins 1.5, Compound 1, combination 1 & 19, PTX 20, Sc
Method: Human resources Colon cancer cell line HT29 was cultured in the same condition as the experiment 4. […] Mice were randomly assigned into 7 groups: […] The body weight and the tumor volume were measured and recorded weekly. The tumor volume was calculated according to the formula below. […] The tumors were departed and weighed.

HepG2 [1] = test: Inhibitory activity and IC50 to HepG2 at different time of treatment (MTT, Example 4); format: cell-based, Human; details: for IC50 / inhibition at 5 µg/mL / inhibition at 10 µg/mL / inhibition at 20 µg/mL / inhibition at 40 µg/mL / inhibition at 80 µg/mL: Homo sapiens; for IC50: read-out: IC50 to HepG2
Method: (§1) Human resources hepatoma cell line HepG2 was provided by Cancer Hospital, Chinese Academy of Medical Sciences. […] Cells were passaged every 2 or 3 days, and all the experiments were carried out on exponentially growing cells.
Cells were harvested in good growth status and cell suspension was prepared with 2×10^4 cells/mL, added 100 μL per well of 96-well plates, and cultured for 24 h in the incubator. 100 μL liquid medium with no cell was added per well as blank group.
3 plates were used as parallel test to culture cells at different period.
Before medication, supernatant of each well was removed and fresh 1640 medium was added, 180 μL per well. […] Wells of blank and model groups were added with 0.5% DMSO, 20 μL per well. After finished adding drugs, cells were incubated for 24 and 48 h respectively. At the end of incubation, 20 μL MTT was added per well […]. The supernatant was removed carefully and 150 μL DMSO was added per well. After shaken for 10 mins, the absorbance was read at 490 nm and the inhibition rate was calculated with the formula below.
(§2) Inhibition rate=[(ODmodel−ODblank)−(ODdrugs−ODblank)]/(ODmodel−ODblank)×100%
IC50 was calculated with Bliss method.
(§3) The MTT experiment was repeated three times.

HepG2 [2] = test: MTT inhibition of tumor cells in vitro (Example 3); format: cell-based, Human; details: Homo sapiens, HepG2, 48 h, 40 μg/mL, read-out: Inhibition rate, HepG2
HepG2 [3] = test: Detection of apoptosis (Annexin V-FITC/PI flow cytometry); format: cell-based, Human; details: HepG2, 80 μg/mL, 24 hours
Method: as §1
Following the incubation of cells in the flasks with drug for 24 hours, cell suspension was harvested with 5×10^5 to 1×10^6 cells/mL, and taken with 1 mL for centrifuging for 10 min at 1000 RPM and 4° C. The supernatant was replaced carefully, added with 1 mL cold phosphate-buffered saline, gently shaken for resuspension, recentrifuged and replaced the supernatant. The cells were resuspended with 200 μl Binding Buffer, added with 10 μl Annexin V-FITC and 5 μl PI, gently shaken and reacted for 15 min at Room temperature, then added with 300 μl Binding Buffer and finally measured immediately with Flow cytometry.

[4] = tested on: BGC823 human gastric adenocarcinoma; test: Anti-BGC823 human gastric adenocarcinoma in BALB/c (nu/nu) nude mice; format: in vivo; details: for body weight of BGC823-bearing nude mice / tumor volume of BGC823-bearing nude mice: mg/kg BW: total saponins 1.5, Compound 1, combination 1 & 19, 5-FU 20, Sc; for body weight of BGC823-bearing nude mice: in g (unit assumed)
Method: Human resources gastric adenocarcinoma cell line BGC823 was cultured in the same condition as the experiment 4.
The body weight and the tumor volume were measured and recorded weekly. The tumor volume was calculated according to the formula below.
Tumors were departed and weighed. Tumor Index and inhibition rate were calculated as below: […]

MCF-7 = test: MTT inhibition of tumor cells in vitro (Example 3); format: cell-based, Human; details: Homo sapiens, MCF7, 40 μg/mL, 48 hours, read-out: Inhibition rate, MCF-7
Method: (§4) Human resources tumor cell line […], […], HT29, MCF-7 and A875 were provided by Cancer Hospital, Chinese Academy of Medical Sciences.
(§5) Cells were passaged every 2 or 3 days, and all the experiments were carried out on exponentially growing cells.
(§6) All cells were cultured in a humidified atmosphere (5% CO2 and […]), and passaged every 2 or 3 days. Cells were harvested on exponentially growing phase, and cell suspension was prepared with 2×10^4 cells/mL, added with 100 μL per well of 96-well plates, and cultured for 24 h in incubator. 100 μL medium without cells was added per well as blank group.
(§7) Compound (1), (2), (3), (4), (7) or (8) was dissolved in DMSO respectively, and diluted with 1640 medium at a final concentration of 400 μg/mL, so as to that of the Cisplatin. Cells were divided into 9 groups, they were blank group, model group, Compound (1), (2), (3), (4), (7) and (8) groups, and Cisplatin group as the positive one, 6 wells per group.
(§8) Before drug administration, supernatant of each well was removed and fresh 1640 medium was added, 180 μL per well. Compounds and Cisplatin were added with 20 μL per well respectively at a final concentration of 40 μg/mL. Wells of blank and model groups were added with 0.5% DMSO, 20 μL per well. 48 hours later, 20 μL MTT was added per well and continued to culture for 4 hours, then the supernatant was replaced carefully and DMSO was added with 150 μL per well to end the experiment. The 96-well plates were shaken for 10 mins and read the absorbance at 490 nm. The Inhibition rate was calculated.
as §2, §3

BGC823 = test: MTT inhibition of tumor cells in vitro (Example 3); format: cell-based, Human; details: Homo sapiens, BGC-823, 48 h, 40 μg/mL, read-out: Inhibition rate, BGC823
Method: as §4, §5, §6, §7, §8, §2, §3

A875 = test: MTT inhibition of tumor cells in vitro (Example 3); format: cell-based, Human; details: Homo sapiens, A875, 40 μg/mL, 48 hours, read-out: Inhibition rate, A875
Method: as §4, §5, §6, §7, §8, §2, §3

HT29 = test: MTT inhibition of tumor cells in vitro (Example 3); format: cell-based, Human; details: Homo sapiens, HT-29, 48 h, 40 μg/mL, read-out: Inhibition rate, HT29
Method: as §4, §5, §6, §7, §8, §2, §3

COC(=O)C1CC(O[C@H]2CC[C@]3(C)[C@H]4C=CC5[C@@H]6CC(C)(C)CC[C@]6(C(=O)OC6OC(C)C(OC(=O)/C=C/c7ccc(C)cc7)C(OC(C)=O)C6OC6CC(C)C(O)C(O)C6O)[C@H](O)C[C@@]5(C)[C@]4(C)CC[C@H]3[C@]2(C)C=O)C(OC2OC(CO)C(O)C(O)C2O)C(OC2OCC(O)C(O)C2O)C1O (some centres unmarked) [Compound (2), sinocrassuloside VII] was tested, and the “body weight of HT29-bearing nude mice” value (HT29 human colon cancer; 0 W) was 20.10 ± 1.35, the “body weight of HT29-bearing nude mice” value (HT29 human colon cancer; 1 W) was 22.10 ± 0.90 and the “tumor volume of HT29-bearing nude mice” value (HT29 human colon cancer; 1 W) was 639.16 ± 539.16. The “body weight of HT29-bearing nude mice” value (HT29 human colon cancer; 2 W) was 22.90 ± 0.90, the “tumor volume of HT29-bearing nude mice” value (HT29 human colon cancer; 2 W) was 918.54 ± 469.16 and the “body weight of HT29-bearing nude mice” value (HT29 human colon cancer; 3 W) was 22.70 ± 1.38. The “tumor volume of HT29-bearing nude mice” value (HT29 human colon cancer; 3 W) was 859.24 ± 691.16, the Inhibition rate (HT29 human colon cancer; HT29-bearing nude mice, after 3 weeks, from average tumor mass vs model) was 54.87% and the highest inhibition rate (HepG2 [1]; HepG2, 20-80 μg/mL) was “above 99%”. For the same compound, the IC50 (HepG2 [1]; HepG2, 24 h) was 5.25 µM, the inhibition at 5 µg/mL (HepG2 [1]; HepG2, 24 h, read-out: Inhibition Rate, HepG2, 5 μg/ml, 24 h) was 13.4 ± 5.76% and the inhibition at 10 µg/mL (HepG2 [1]; HepG2, 24 h, read-out: Inhibition Rate, HepG2, 10 μg/ml, 24 h) was > 80%. It also gave an inhibition at 20 µg/mL (HepG2 [1]; HepG2, 24 h, read-out: Inhibition Rate, HepG2, 20 μg/ml, 24 h) of 92.7 ± 2.43%, an inhibition at 40 µg/mL (HepG2 [1]; HepG2, 24 h, read-out: Inhibition Rate, HepG2, 40 μg/ml, 24 h) of 90 ± 2.41% and an inhibition at 80 µg/mL (HepG2 [1]; HepG2, 24 h, read-out: Inhibition Rate, HepG2, 80 μg/ml, 24 h) of 94.6 ± 2.59%. The IC50 (HepG2 [1]; HepG2, 48 h) was 4.56 µM, the inhibition at 5 µg/mL (HepG2 [1]; HepG2, 48 h, read-out: Inhibition Rate, HepG2, 5 μg/ml, 48 h) was 16.6 ± 8% and the inhibition at 10 µg/mL (HepG2 [1]; HepG2, 48 h, read-out: Inhibition Rate, HepG2, 10 μg/ml, 48 h) was > 80%. The inhibition at 20 µg/mL (HepG2 [1]; HepG2, 48 h, read-out: Inhibition Rate, HepG2, 20 μg/ml, 48 h) was 99.47 ± 0.56%, the inhibition at 40 µg/mL (HepG2 [1]; HepG2, 48 h, read-out: Inhibition Rate, HepG2, 40 μg/ml, 48 h) was 98.4 ± 1% and the inhibition at 80 µg/mL (HepG2 [1]; HepG2, 48 h, read-out: Inhibition Rate, HepG2, 80 μg/ml, 48 h) was 98.89 ± 0.68%. The inhibition at 40 µg/mL (HepG2 [2]) was > 90%, the early apoptosis signal (HepG2 [3]; control 1.5%) was 8.5% and the “number of necrotic cells” value (HepG2 [3]; control 2.0%) was 6.6%. For the same compound, the “body weight of BGC823-bearing nude mice” value ([4]; 0 W) was 20.10 ± 1.10, the “tumor volume of BGC823-bearing nude mice” value ([4]; 1 W) was 796.43 ± 563.35 and the “tumor volume of BGC823-bearing nude mice” value ([4]; 2 W) was 1186.34 ± 625.68. For the same compound, the “body weight of BGC823-bearing nude mice” value ([4]; 2 W) was 23.00 ± 0.82, the “tumor volume of BGC823-bearing nude mice” value ([4]; 3 W) was 1654.23 ± 891.57 and the “body weight of BGC823-bearing nude mice” value ([4]; 3 W) was 23.40 ± 1.58. For the same compound, the Inhibition rate ([4]; BGC823-bearing nude mice, after 3 weeks, from average tumor mass vs model) was 79.63%, the inhibition at 40 µg/mL (MCF-7) was 91 ± 8.68% and the inhibition at 40 µg/mL (BGC823) was > 90%. For the same compound, the inhibition at 40 µg/mL (A875) was 77.5 ± 9.94% and the inhibition at 40 µg/mL (HT29) was > 90%.
